The subject of this assay is CYPIR. Description: Postemergence foliar-applied greenhouse weed control, direct-seeded rice system. It counts as in vivo, Cyperus iria L. The text has this:
Seeds or nutlets of the desired test plant species were planted in a soil matrix prepared by mixing a loam or sandy loam soil (e.g., 28.6 percent silt, 18.8 percent clay, and 52.6 percent sand, with a pH of about 5.8 and an organic matter content of about 1.8 percent) and calcareous grit in an 80 to 20 ratio. The soil matrix was contained in plastic pots with a volume of 1 quart and a surface area of 83.6 square centimeters (cm^2). When required to ensure good germination and healthy plants, a fungicide treatment and/or other chemical or physical treatment was applied. The plants were grown for 8-22 days in a greenhouse with an approximate 14 h photoperiod which was maintained at about 29° C. during the day and 26° C. during the night. Nutrients (Peters Excel® 15-5-15 5-Ca 2-Mg and iron chelate) were applied in the irrigation solution as needed and water was added on a regular basis. Supplemental lighting was provided with overhead metal halide 1000-Watt lamps as necessary. The plants were employed for testing when they reached the first through fourth true leaf stage. […]
Treatment requirements were calculated based upon the rates being tested, the concentration of active ingredient or acid equivalent in the formulation, and a 12 mL application volume at a rate of 187 L/ha.
For treatments comprised of formulated compounds, measured amounts of compounds were placed individually in 25 mL glass vials and diluted in a volume of 1.25% (v/v) Agri-Dex® crop oil concentrated to obtain 12× stock solutions. […]
For treatments comprised of formulated and technical compounds, weighed amounts of the technical materials were placed individually in 25 mL glass vials and dissolved in a volume of 97:3 v/v acetone/DMSO to obtain 12× stock solutions, and measured amounts of the formulated compounds were placed individually in 25 mL glass vials and diluted in a volume of 1.5% (v/v) crop oil concentrate or water to obtain 12× stock solutions. […]

For `COc1c(Cl)ccc(-c2nc(C(=O)OCc3ccccc3)c(Cl)c(N)c2F)c1F` [Compound A Benzyl Ester], the “Visual Weed Control (%) - 22 DAA CYPIR Obs” value was determined as 25% (Compound A Benzyl Ester 4.38 gae/ha alone) and 50% (Compound A Benzyl Ester 8.75 gae/ha alone).

(Values after patent US8889591B2, “Herbicidal compositions comprising 4-amino-3-chloro-5-fluoro-6-(4-chloro-2-fluoro-3-methoxyphenyl)pyridine-2-carboxylic acid or a derivative thereof and bromobutide, daimuron, oxaziclomefone or pyributicarb” (Dow Agrosciences LLC, priority 2012, dated 2014).)
